The values below come from patent publication US10702521B2, “Methods for treating neisseria gonorrhoeae infection with substituted 1,2-dihydro-2A,5,8A-triazaacenaphthylene-3,8-diones” (priority 2014, dated 2020).

In data set [1] the test system is Staphylococcus aureus, Streptococcus pneumoniae, Streptococcus pyogenes, Enterococcus faecalis, Enterococcus faecium, Haemophilus influenzae, Moraxella …. The data set can be described thus: Antimicrobial Activity Assay: whole-cell MIC by broth microdilution (CLSI M7-A7). The conditions noted are these: against a strain of at least one of the organisms listed. The class given is cell-based, Gram-positive and Gram-negative organisms. As to the method: Whole-cell antimicrobial activity was determined by broth microdilution using the Clinical and Laboratory Standards Institute (CLSI) recommended procedure, Document M7-A7, “Methods for Dilution Susceptibility Tests for Bacteria that Grow Aerobically”. The compounds were tested in serial two-fold dilutions ranging from 0.016 to 16 mcg/ml.
The minimum inhibitory concentration (MIC) was determined as the lowest concentration of compound that inhibited visible growth. A mirror reader was used to assist in determining the MIC endpoint.
Compounds were evaluated against Gram-positive organisms, selected from Staphylococcus aureus, Streptococcus pneumoniae, Streptococcus pyogenes, Enterococcus faecalis and Enterococcus faecium.
In addition, compounds were evaluated against Gram-negative organisms selected from Haemophilus influenzae, Moraxella catarrhalis, Escherichia coli, Pseudomonas aeruginosa, Proteus mirabilis, Enterobacter cloacae, Enterobacter aerogenes, Klebsiella pneumoniae and Stenotrophomonas maltophilia.

A short description of data set [2]: Estimation of PK parameters from blood samples in mice. The class given is in vivo. The conditions noted are these: estimated. The procedure:
In one study, blood samples were collected terminally from a separate group of mice at 1, 2, 6 and 12 hours post Example 39 administration (n=3 per time point and dose) to allow for estimation of PK parameters.

Data set [3] relates to N. gonorrhoeae MS11. Description: MIC / susceptibility of N. gonorrhoeae MS11 (strain of the mouse model). The class given is cell-based, Neisseria gonorrhoeae.
A further data set deals with Neisseria gonorrhoeae. The data set can be described thus: In vitro MIC by CLSI agar dilution against Neisseria gonorrhoeae isolates. The class given is cell-based. The conditions noted are these: for MIC90: Neisseria gonorrhoeae.
Data set [4] concerns Mycobacterium tuberculosis H37Rv. Description: Mycobacterium tuberculosis H37Rv Inhibition Assay (resazurin MIC). In kind it is cell-based.
The subject of data set [5] is N. gonorrhoeae MS11. Description: Mouse model of N. gonorrhoeae vaginal colonization. In kind it is in vivo, mice. Conditions: for mice in which colonization with N. gonorrhoeae MS11 was eliminated by the end of the study: two studies. The procedure: A mouse model of N. gonorrhoeae vaginal colonization was performed to evaluate the efficacy of compounds of the present invention. Two independent studies were performed by the same laboratory.
In particular, Example 39 (i.e., (2R)-2-({4-[(3,4-Dihydro-2H-pyrano[2,3-c]pyridin-6-ylmethyl)amino]-1-piperidinyl}methyl)-1,2-dihydro-3H, 8H-2a,5,8a-triazaacenaphthylene-3,8-dione hydrochloride) was tested in this model following a single oral dose or a total of two oral doses administered on the same day. Female mice were primed for colonization using estradiol; trimethoprim sulfate and streptomycin were administered to control commensals. On day 0, mice were inoculated intravaginally with N. gonorrhoeae MS11 (Example 39—MIC 1 μg/ml). Successful colonization was confirmed via vaginal swab culture on days 1 and 2. Single oral doses at 100 mg/kg and 200 mg/kg or a total of two oral doses at 100 mg/kg each of Example 39 were administered on day 2. Vaginal swabs for quantitative culture were collected daily through day 10 (8 days post treatment).

Where [6] appears, read: H37Rv strain, six days incubation, resazurin fluorescence after 48 hours, read-out: MIC value.
Where [7] appears, read: 144 h, read-out: MIC value, H37Rv strain, six days incubation, resazurin fluorescence after 48 hours.

Structures are written as SMILES. Counter-ions that a name gives are not always drawn. Like-named read-outs stand apart in the source and are kept apart here.

The compound `O=c1ccc2ccc(=O)n3c2n1C[C@H]3CN1CCC(NCc2cc3c(cn2)COC3)CC1` [Example 9, (1R)-1-({4-[(1,3-Dihydrofuro[3,4-c]pyridin-6-ylmethyl)amino]-1-piperidinyl}methyl)-1,2-dihydro-4H,9H-imidazo[1,2,3-ij]-1,8-naphthyridine-4,9-dione hydrochloride] yielded an MIC in data set [1] of at most 4 µg/mL.
Turning to `O=c1ccc2ncc(=O)n3c2n1C[C@H]3CN1CCC(NCc2cc3c(cn2)OCCC3)CC1` [Example 39, (2R)-2-({4-[(3,4-Dihydro-2H-pyrano[2,3-c]pyridin-6-ylmethyl)amino]-1-piperidinyl}methyl)-1,2-dihydro-3H,8H-2a,5,8a-triazaacenaphthylene-3,8-dione hydrochloride], the fAUC0-24 in data set [2] (single oral dose of 100 mg/kg) was 8000 ng·h/mL; in data set [2] (single oral dose of 200 mg/kg), 22000 ng·h/mL; in data set [2] (two 100 mg/kg oral doses on the same day), 16000 ng·h/mL. In addition, the MIC against N. gonorrhoeae MS11 [3] (Neisseria gonorrhoeae, N. gonorrhoeae MS11) is 1 µg/mL; in data set [4] (setting [6]) it was under 2 µg/mL. Moreover, the “change in susceptibility of N. gonorrhoeae MS11 colonies recovered from treated mice” value in the data set with N. gonorrhoeae MS11 [3] (compared with stock cultures of the organism) is recorded as “did not demonstrate any change in susceptibility”. In addition, the “MIC90 fold higher than that of ceftriaxone” value in the data set on Neisseria gonorrhoeae (30 isolates of N. gonorrhoeae) is on record as “at least 16 fold”. The “MIC90 fold lower than ciprofloxacin” value against Neisseria gonorrhoeae (30 isolates of N. gonorrhoeae) is recorded as “at least 8 fold”. Further, the MIC90 in the data set on Neisseria gonorrhoeae (30 isolates of N. gonorrhoeae collected 2003 through 2007, read-out: MIC90 (MIC which inhibits 90% of the isolates tested)) came to 0.5 µg/mL; with Neisseria gonorrhoeae (second study, all 145 isolates of N. gonorrhoeae, majority collected in 2013, read-out: MIC90), 0.5 µg/mL; in the data set on Neisseria gonorrhoeae (second study, subset of 37 ciprofloxacin-nonsusceptible isolates, read-out: MIC90), 1 µg/mL. For the same compound, the “modal value (MIC)” value with Neisseria gonorrhoeae (against the 9 ciprofloxacin-resistant N. gonorrhoeae tested) is given as “remained unchanged”. Further, the “course of colonization after initial clearance” value with N. gonorrhoeae MS11 [5] (first study, one mouse in each dose group, not observed in the follow-up study) is recorded as “regrowth to a high number of organisms by the end of the study”. The “mice in which colonization with N. gonorrhoeae MS11 was eliminated by the end of the study” value is 70-80% in the data set with N. gonorrhoeae MS11 [5] (single oral dose of 100 mg/kg on day 2), 90-100% in the data set on N. gonorrhoeae MS11 [5] (single oral dose of 200 mg/kg on day 2) and 100% in the data set with N. gonorrhoeae MS11 [5] (two 100 mg/kg oral doses administered on the same day).
Regarding `O=c1ccc2ccc(=O)n3c2n1C[C@H]3CN1CCC(NCc2nc3cccc(F)c3[nH]2)CC1` [Example 46, (1R)-1-[(4-{[(4-Fluoro-1H-benzimidazol-2-yl)methyl]amino}-1-piperidinyl)methyl]-1,2-dihydro-4H,9H-imidazo[1,2,3-ij]-1,8-naphthyridine-4,9-dione dihydrochloride], the MIC in data set [4] (read-out: MIC value, H37Rv strain, six days incubation, resazurin fluorescence after 48 hours) is under 2 µg/mL.
Turning to `O=c1ccc2ncc(=O)n3c2n1C[C@H]3CN1CCC(NCc2cnc3nsnc3c2)CC1` [Example 49, (2R)-2-({4-[([1,2,5]Thiadiazolo[3,4-b]pyridin-6-ylmethyl)amino]-1-piperidinyl}methyl)-1,2-dihydro-3H,8H-2a,5,8a-triazaacenaphthylene-3,8-dione], the MIC in data set [4] (144 h, H37Rv strain, six days incubation, resazurin fluorescence after 48 hours, read-out: MIC value) is under 2 µg/mL.
Turning to `O=c1ccc2ccc(=O)n3c2n1C[C@H]3CN1CCC(NCc2ccc3c(c2)OCCC3)CC1` [Example 50, (1R)-1-({4-[(3,4-Dihydro-2H-chromen-7-ylmethyl)amino]-1-piperidinyl}methyl)-1,2-dihydro-4H,9H-imidazo[1,2,3-if]-1,8-naphthyridine-4,9-dione hydrochloride], the MIC in data set [4] (setting [7]) is under 2 µg/mL.
Regarding `N#Cc1cc(CNC2CCN(C[C@@H]3Cn4c(=O)cnc5ccc(=O)n3c54)CC2)cc2c1OCCO2` [Example 56, 7-{[(1-{[(1R)-3,8-Dioxo-1,2-dihydro-3H,8H-2a,5,8a-triazaacenaphthylen-1-yl]methyl}-4-piperidinyl)amino]methyl}-2,3-dihydro-1,4-benzodioxin-5-carbonitrile hydrochloride], in data set [4] (setting [7]), the MIC was under 2 µg/mL.
In the case of `O=c1ccc2ccc(CNC3CCN(C[C@@H]4Cn5c(=O)ccc6ccc(=O)n4c65)CC3)cc2o1` [Example 59, (1R)-1-[(4-{[(2-Oxo-2H-chromen-7-yl)methyl]amino}-1-piperidinyl)methyl]-1,2-dihydro-4H,9H-imidazo[1,2,3-ij]-1,8-naphthyridine-4,9-dione], in data set [4] (setting [6]), the MIC was under 2 µg/mL.
